Test results: ChEMBL document CHEMBL1130375, “Pyridazinones with a pendant acylsulfonamide moiety as endothelin receptor antagonists” (Bioorg Med Chem Lett, 1997)

Tests used:
[1] = biological target: T1, Endothelin-1 receptor (Rattus norvegicus, UniProt P26684); test: Compound was evaluated for the antagonism at the Endothelin A receptor (G-protein coupled endothelin A); type: functional; details: read-out: pA2 (converted)
T1 sequence (P26684 whole entry): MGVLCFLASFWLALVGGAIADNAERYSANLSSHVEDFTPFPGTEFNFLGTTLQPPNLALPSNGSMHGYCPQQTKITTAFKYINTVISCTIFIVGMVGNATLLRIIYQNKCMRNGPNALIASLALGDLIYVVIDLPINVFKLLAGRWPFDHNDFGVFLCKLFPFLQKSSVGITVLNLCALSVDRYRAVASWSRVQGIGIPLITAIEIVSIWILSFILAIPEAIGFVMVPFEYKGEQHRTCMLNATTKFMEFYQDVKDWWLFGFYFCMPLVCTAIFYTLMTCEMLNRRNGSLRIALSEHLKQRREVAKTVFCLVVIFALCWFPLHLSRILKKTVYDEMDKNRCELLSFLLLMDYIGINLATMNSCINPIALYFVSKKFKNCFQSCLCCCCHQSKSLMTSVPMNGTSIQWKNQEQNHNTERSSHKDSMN

[2] = biological target: T1, Endothelin-1 receptor; test: Inhibition of specific binding of [125I]ET1 (endothelin 1) to the endothelin A receptor of rat aorta membranes; type: cell membranes, Membrane
[3] = biological target: T2, Endothelin receptor type B (Sus scrofa, UniProt P35463); test: Inhibition of specific binding of [125I]ET1 (endothelin 1) to endothelin B receptor of porcine kidney membranes
T2 sequence (P35463 whole entry): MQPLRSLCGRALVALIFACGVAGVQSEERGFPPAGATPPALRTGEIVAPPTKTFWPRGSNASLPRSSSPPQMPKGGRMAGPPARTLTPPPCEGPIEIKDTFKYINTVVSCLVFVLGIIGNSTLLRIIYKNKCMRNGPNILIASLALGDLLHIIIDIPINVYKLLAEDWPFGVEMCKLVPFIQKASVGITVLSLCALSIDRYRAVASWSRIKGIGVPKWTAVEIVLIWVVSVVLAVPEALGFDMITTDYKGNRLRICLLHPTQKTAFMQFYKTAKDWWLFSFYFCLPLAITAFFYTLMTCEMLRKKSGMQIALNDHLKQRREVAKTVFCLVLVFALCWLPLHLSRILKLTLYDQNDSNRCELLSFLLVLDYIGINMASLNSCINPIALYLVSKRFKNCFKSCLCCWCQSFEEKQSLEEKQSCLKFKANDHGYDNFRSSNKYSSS

[4] = biological target: T1, Endothelin-1 receptor; test: Compound was evaluated for the antagonism at the Endothelin A receptor in isolated rat aortic rings; type: functional; details: read-out: pA2 (converted)
[5] = biological target: T3, Endothelin receptor type B (Homo sapiens, UniProt P24530); test: Compound was evaluated for the antagonism at the Endothelin B receptor in isolated rabbit jugularis vein; type: functional, Oryctolagus cuniculus; details: target entry is the homologue from another species; read-out: pA2 (converted)
T3 sequence (P24530 whole entry): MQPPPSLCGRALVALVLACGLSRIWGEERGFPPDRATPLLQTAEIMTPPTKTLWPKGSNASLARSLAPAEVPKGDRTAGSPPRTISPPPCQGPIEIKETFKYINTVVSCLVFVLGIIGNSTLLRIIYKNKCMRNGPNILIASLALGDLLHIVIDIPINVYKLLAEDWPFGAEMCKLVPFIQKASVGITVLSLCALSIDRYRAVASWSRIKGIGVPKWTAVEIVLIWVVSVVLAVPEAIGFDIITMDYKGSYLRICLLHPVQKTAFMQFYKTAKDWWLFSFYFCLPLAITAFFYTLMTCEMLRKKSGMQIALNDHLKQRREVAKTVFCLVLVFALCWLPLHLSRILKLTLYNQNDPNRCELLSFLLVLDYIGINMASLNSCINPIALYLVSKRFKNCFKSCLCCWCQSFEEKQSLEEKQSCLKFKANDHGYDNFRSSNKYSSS

SMILES | Kb [1] | IC50 [2] | IC50 [3] | Kb [4] | Kb [5]
Cc1ccc(=O)n(C(C(=O)NS(=O)(=O)c2ccc(C(C)(C)C)cc2)c2ccc3c(c2)OCO3)n1 (stereo not given) |  | 32 nM | 2000 nM |  | 
CCCc1cc(C)c(=O)n(C(C(=O)NS(=O)(=O)c2ccc(C(C)C)cc2)c2ccc3c(c2)OCO3)n1 (stereo not given) |  | 290 nM | 4500 nM |  | 
Cc1ccc(=O)n(C(C(=O)NS(=O)(=O)c2ccccc2)c2ccc3c(c2)OCO3)n1 (stereo not given) |  | 230 nM | > 100000 nM |  | 
CCCc1cc(C(=O)O)ccc1OC(C(=O)NS(=O)(=O)c1ccc(C(C)C)cc1)c1ccc2c(c1)OCO2 (stereo not given) | 3.16 nM | 41 nM | 900 nM |  | 
Cc1ccc(=O)n(C(C(=O)NS(=O)(=O)c2ccc(-c3ccccc3)cc2)c2ccc3c(c2)OCO3)n1 (stereo not given) |  | 240 nM | 2400 nM |  | 
O=C(O)C(c1ccc2c(c1)OCO2)N1N=C(c2ccccc2)CCC1=O (stereo not given) |  | > 100000 nM | > 100000 nM |  | 
Cc1cc(C)c(=O)n(C(C(=O)NS(=O)(=O)c2ccc(C(C)(C)C)cc2)c2ccc3c(c2)OCO3)n1 (single isomer, unassigned; form 1) |  | 2600 nM | > 100000 nM |  | 
Cc1ccc(=O)n(C(C(=O)NS(=O)(=O)c2ccc(Br)cc2)c2ccc3c(c2)OCO3)n1 (stereo not given) |  | 230 nM | > 100000 nM |  | 
Cc1cc(C)c(=O)n(C(C(=O)NS(=O)(=O)c2ccc(C(C)(C)C)cc2)c2ccc3c(c2)OCO3)n1 (stereo in doubt; 2q) |  | 20 nM | 1200 nM |  | 
Cc1cc(C)c(=O)n(C(C(=O)NS(=O)(=O)c2ccc(C(C)(C)C)cc2)c2ccc3c(c2)OCO3)n1 (single isomer, unassigned; form 2) |  | 18 nM | 550 nM |  | 
CCc1cc(C)nn(C(C(=O)NS(=O)(=O)c2ccc(C(C)C)cc2)c2ccc3c(c2)OCO3)c1=O (stereo not given) |  | 32 nM | 2600 nM |  | 

The remaining lines, values ahead:

Kb [1] | IC50 [2] | IC50 [3] | Kb [4] | Kb [5] | SMILES
631 nM | 34 nM | 2900 nM |  |  | Cc1ccc(=O)n(C(C(=O)NS(=O)(=O)c2ccc(C(C)C)cc2)c2ccc3c(c2)OCO3)n1 (stereo not given)
 | 640 nM | 8400 nM |  |  | CCCc1ccc(=O)n(C(C(=O)NS(=O)(=O)c2ccc(C(C)C)cc2)c2ccc3c(c2)OCO3)n1 (stereo not given)
 | 3200 nM | 5700 nM |  |  | COc1ccc(-c2ccc(=O)n(C(C(=O)NS(=O)(=O)c3ccc(C(C)C)cc3)c3ccc4c(c3)OCO4)n2)cc1 (stereo not given)
 | 160 nM | > 100000 nM |  |  | COc1ccc(S(=O)(=O)NC(=O)C(c2ccc3c(c2)OCO3)n2nc(C)ccc2=O)cc1 (stereo not given)
 | 2900 nM | 4200 nM |  |  | COc1ccc(C2=NN(C(C(=O)NS(=O)(=O)c3ccc(C(C)C)cc3)c3ccc4c(c3)OCO4)C(=O)CC2)cc1 (stereo not given)
 | 29 nM | 3500 nM | 1260 nM | 1580 nM | Cc1cc(C)c(=O)n(C(C(=O)NS(=O)(=O)c2ccc(C(C)C)cc2)c2ccc3c(c2)OCO3)n1 (stereo not given)
 | > 100000 nM | > 100000 nM |  |  | COc1ccc(C2=NN(C(C(=O)NS(=O)(=O)c3ccc(C(C)C)cc3)c3ccc4c(c3)OCO4)C(=O)CC2)c(OC)c1 (stereo not given)
 | 4000 nM | 7700 nM |  |  | COc1ccc(-c2cc(C)c(=O)n(C(C(=O)NS(=O)(=O)c3ccc(C(C)C)cc3)c3ccc4c(c3)OCO4)n2)cc1 (stereo not given)
 | 3200 nM | > 100000 nM |  |  | CC(C)c1ccc(S(=O)(=O)NC(=O)C(c2ccc3c(c2)OCO3)N2N=C(c3cccs3)CCC2=O)cc1 (stereo not given)
 | 4000 nM | > 100000 nM |  |  | CC(C)c1ccc(S(=O)(=O)NC(=O)C(c2ccc3c(c2)OCO3)n2nc(C(C)(C)C)ccc2=O)cc1 (stereo not given)
 | 2700 nM | 6400 nM |  |  | CC(C)c1ccc(S(=O)(=O)NC(=O)C(c2ccc3c(c2)OCO3)N2N=C(c3ccc(Cl)cc3)CCC2=O)cc1 (stereo not given)
 | 2600 nM | > 100000 nM |  |  | CC(C)c1ccc(S(=O)(=O)NC(=O)C(c2ccc3c(c2)OCO3)N2N=C(c3ccccc3)CCC2=O)cc1 (stereo not given)
 | 2500 nM | 1700 nM |  |  | CC(C)c1ccc(S(=O)(=O)NC(=O)C(c2ccc3c(c2)OCO3)n2nc3c(cc2=O)CCC3)cc1 (stereo not given)
 | 340 nM | 5200 nM |  |  | Cc1cc(=O)n(C(C(=O)NS(=O)(=O)c2ccc(C(C)C)cc2)c2ccc3c(c2)OCO3)nc1C (stereo not given)
 | 260 nM | 2600 nM |  |  | CC(C)c1ccc(S(=O)(=O)NC(=O)C(c2ccc3c(c2)OCO3)n2nc(C3CC3)ccc2=O)cc1 (stereo not given)
 | > 100000 nM | > 100000 nM |  |  | COc1ccc(OC)c(C2=NN(C(C(=O)NS(=O)(=O)c3ccc(C(C)C)cc3)c3ccc4c(c3)OCO4)C(=O)CC2)c1 (stereo not given)
 | 4100 nM | > 100000 nM |  |  | COc1ccc(C2=NN(C(C(=O)NS(=O)(=O)c3ccc(C(C)C)cc3)c3ccc4c(c3)OCO4)C(=O)CC2)cc1OC (stereo not given)
